{
  "source": "patent US20220016080A1",
  "about": "“COMPOUNDS THAT SELECTIVELY AND EFFECTIVELY INHIBIT HAKAI-MEDIATED UBIQUITINATION, AS ANTI-CANCER DRUGS” (FUNDACIÓN PROFESOR NOVOA SANTOS, priority 2018, published 2022)",
  "assay_type_in_all_cases": "cell-based",
  "key": {"[1]": {"target": "T1, E3 ubiquitin-ligase Hakai (Mus musculus, UniProt Q9JIY2)", "T1 construct": "expressed in transfected cells; host or cells: HEK293T (293) cells, co-transfected with v-Src and HA-ubiquitin, and in A3 also with myc-E-cadherin", "T1 sequence (Q9JIY2 1-491)": "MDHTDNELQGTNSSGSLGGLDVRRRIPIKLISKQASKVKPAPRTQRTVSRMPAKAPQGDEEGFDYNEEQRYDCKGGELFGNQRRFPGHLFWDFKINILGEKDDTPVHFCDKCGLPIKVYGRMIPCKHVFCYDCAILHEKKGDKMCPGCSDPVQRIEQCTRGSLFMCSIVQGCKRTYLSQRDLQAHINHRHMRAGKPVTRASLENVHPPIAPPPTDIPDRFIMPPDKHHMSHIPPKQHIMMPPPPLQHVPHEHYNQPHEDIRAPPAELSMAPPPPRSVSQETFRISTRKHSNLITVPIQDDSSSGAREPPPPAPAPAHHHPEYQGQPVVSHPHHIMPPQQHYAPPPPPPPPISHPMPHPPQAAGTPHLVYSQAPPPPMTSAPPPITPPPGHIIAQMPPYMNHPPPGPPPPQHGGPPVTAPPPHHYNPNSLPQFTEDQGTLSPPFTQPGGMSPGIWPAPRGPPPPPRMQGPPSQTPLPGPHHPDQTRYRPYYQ", "assay": "Hakai-dependent ubiquitination assay in 293T cells transfected with Flag-Hakai, v-Src and HA-ubiquitin", "settings": "293T cells transfected with Src, treated 36 h", "procedure": "For ubiquitination assays, 750.000 HEK293T cells were seeded in 6-well cell culture plates and after 24 h were transfected with 0.25 μg Src, 0.75 μg Flag-Hakai, and 0.5 μg HA-ubiquitin with Lipofectamin 2000 (Invitrogen, UK). Six hours after transfection cells were treated with indicated concentrations of Hakin-1, Hakin-5 or the rest of the analogues tested for 36 h. Whole cell extracts were obtained in lysis buffer (20 mM Tris-HCl pH 7.5, 150 mM NaCl and 1% Triton X-100) containing 10 μg/ml leupeptin, 10 μg/ml aprotinin and 1 mM phenylmethanesulphonyl fluoride (PMSF), supplemented with 10 mM N-ethylmaleimide. Cells were harvested and subjected to western blotting using anti-HA antibody to detect ubiquitination."}, "[2]": {"system": "non-transformed epithelial MDCK cells", "assay": "BrdU proliferation assay, MDCK", "settings": "48 h", "procedure": "(§1) For BrdU assays, 1×10^4 of indicated cells were plated per well into a 96-well plate. After 24 h, cells were treated with the indicated inhibitors for 48 h. Three independent experiments were plated with six replicates per each condition. Cells were treated with […] BrdU for 2 h. BrdU incorporation into newly synthesized DNA was measured using a cell proliferation colorimetric immunoassay kit according to the manufacturer's instructions (Roche, Switzerland). Results are expressed as mean±S.D. Results are represented as percentage of positive cells (mean±S.D) of three independent experiments."}, "Hakai-MDCK cells [3]": {"system": "Hakai-MDCK cells", "assay": "BrdU proliferation assay, Hakai-MDCK", "settings": "48 h", "procedure": "as §1"}, "Hakai-MDCK cells [4]": {"system": "Hakai-MDCK cells", "assay": "E-cadherin protein levels, Hakai-MDCK", "settings": "mesenchymal Hakai-MDCK cells, no basal E-cadherin", "procedure": "For western blot analysis, cells were treated with the indicated inhibitors for 48 h and the whole cell extracts were obtained as described previously. Twenty micrograms of lysates were resolved on a 10% polyacrilamide SDS-PAGE followed by western blot analysis performed as previously described. For immunofluorescence assays cells were grown for 24 h on glass coverslips and treated with the indicated inhibitors for 48 h. Cells were fixed with 4% PFA for 15 min, permeabilized with 0.5% […] and incubated with E-cadherin antibody for 2 h. Coverslips were incubated with fluorescein-tagged secondary antibody (Dakopatts, Sweden) for […]. Finally coverslips were mounted with ProLong Gold antifade reagent (LifeTech, UK) and images were taken in epifluorescence microscope (Olympus) using 40× objective."}, "[5]": {"system": "LoVo colon tumour cell line", "assay": "MTT cell viability assay, LoVo", "settings": "72 h", "procedure": "(§2) For cytotoxicity assays, 1×10^4 cells were seeded per well into a 96-well plate. After 24 h cells were treated with the indicated inhibitors for 72 h and a MTT colorimetric cell viability assay was performed following manufacturer's instructions (Sigma Aldrich, St Louis, Mo.). Absorbance was measured at 570 and 630 nm using a Multiskan Plus Reader (Nanoquant Infinite M200 Tecan Trading AG, Switzerland). Dose-response curves were designed with Graph Pad Prism Software and the half-maximal inhibitory concentration (IC50) values were calculated. Represented data are the mean±SEM of at least three independent experiments with six replicates per condition."}, "[6]": {"system": "HT-29 colon tumour cell line", "assay": "MTT cell viability assay, HT29", "settings": "72 h, analogues at 50-500 μM", "procedure": "as §2"}, "HT29 cells [7]": {"system": "HT29 cells", "assay": "BrdU proliferation assay, HT29", "settings": "48 h", "procedure": "as §1"}, "[8]": {"target": "T1, E3 ubiquitin-ligase Hakai", "assay": "Hakai-dependent ubiquitination of the E-cadherin complex (immunoprecipitation, 293T cells)", "settings": "293T cells transfected with Flag-Hakai, myc-E-cadherin, v-Src, HA-ubiquitin; IP with anti-E-cadherin", "procedure": "For immunoprecipitation experiments, 293 cells were transfected with 3 μg Src, 4 μg Flag-Hakai, and 2 μg HA-ubiquitin and 3 μg E-cadherin with Lipofectamin 2000 (Invitrogen, UK). 24 h after transfection, cells were lysed for 20 min in 1 ml of 1% Triton X-100 lysis buffer (20 mM Tris-HCl pH 7.5, 150 mM NaCl and 1% Triton X-100) containing 10 μg/ml leupeptin, 10 μg/ml aprotinin and 1 mM phenylmethanesulphonyl fluoride (PMSF), supplemented with 10 mM N-ethylmaleimide and 2.5 mM sodium orthovanadate. After centrifugation at 18.000 g for 10 min, the supernatants were immunoprecipitated for 2 h with 2 μg of anti-E-cadherin antibody bound to 60 μl of protein G PLUS-Agarose beads, followed by SDS-polyacrylamide gel electrophoresis (PAGE) and western blotting with the indicated antibodies as previously reported."}, "HT29 cells [9]": {"system": "HT29 cells", "assay": "Migration assay, HT29", "settings": "HT-29; treated 48 h", "procedure": "For invasion assays, cells were treated with Hakin-1 or DMSO as vehicle for 48 h using 1% FBS during the last 24 hours. 3×10^5 MDCK, MDCK-Hakai or LoVo cells were seeded in a cell invasion chamber (Cell invasion assaykit, Chemicon International) containing medium with 2% FBS. After 72 hours for MDCK and MDCK-Hakai Invasive and 16 h for LoVo cells, invasive cells invaded that reach the lower chamber containing 30% FBS were fixed and stained with crystal violet (Sigma Aldrich, St Louis, Mo.) following the manufacturer's specifications. For migration assays, HT29 cells were cultured with Hakin-1 or DMSO as vehicle for 48 h, using medium without serum the last 24 h. In the cell migration chamber were seeded 3×10^5 HT29 cells (Cell migration kit, Millipore, Bedford, Mass.) containing medium without serum. After 16 h, migrated cells in the lower chamber containing serum with 30% FBS were stained with crystal violet and counted following the manufacturer's specifications. For both invasion and migration assays cells were counted in five fields photographed with an Olympus microscope using a 20× objective, experiments were performed in triplicates for each condition and the assays were repeated at least three times. Results are expressed as mean±SD."}},
  "data": [
    {"smiles": "O=C(O)c1ccc(-n2nnnc2SCC(=O)c2ccc([N+](=O)[O-])cc2)cc1", "note": "[Hakin-1, 4-(5-{[2-(4-nitrophenyl)-2-oxoethyl]thiol}-1H-tetrazol-1-yl)benzoic acid]", "values": [
      {"measurement": "Hakai protein levels", "setting": "[1]", "value": "no effect was seen"},
      {"measurement": "ubiquitination mediated by Hakai (western blotting, anti-HA)", "setting": "[1]; DMSO as control", "value": "strongly reduces the ubiquitination mediated by Hakai in a doses dependent-manner"},
      {"measurement": "cell proliferation (BrdU)", "setting": "[2]", "value": "no effect was detected"},
      {"measurement": "cell proliferation (BrdU)", "setting": "Hakai-MDCK cells [3]", "value": "suppress proliferation"},
      {"measurement": "E-cadherin protein levels", "setting": "Hakai-MDCK cells [4]", "value": "no recovery was detected"},
      {"measurement": "cytotoxicity effect (cell viability, MTT)", "setting": "[5]", "value": "important inhibitory response"},
      {"measurement": "cytotoxicity effect (cell viability, MTT)", "setting": "[6]", "value": "important inhibitory response"},
      {"measurement": "cell proliferation (BrdU)", "setting": "HT29 cells [7]", "value": "reduced cell proliferation"},
      {"measurement": "Hakai-dependent ubiquitination of E-cadherin complex", "setting": "[8]", "value": "reduction of Hakai-dependent ubiquitination of E-cadherin complex"},
      {"measurement": "cell migration", "setting": "HT29 cells [9]", "value": "important reduction of cell migration"}
    ]}
  ]
}
